Values of other authors in patent publication US12257342B2, “Phenylephrine hydrochloride ready-to-use solution” (Hikma Pharmaceuticals USA Inc., priority 2015, dated 2025).

Tested on: α−1 adrenergic receptor
Conditions: following an intravenous bolus administration

Structure (SMILES): CNC[C@H](O)c1cccc(O)c1.Cl [Phenylephrine hydrochloride, (−)-m-Hydroxy-α-[(methylamino)methyl]benzyl alcohol hydrochloride]
- onset of blood pressure increase: rapid
- persistence of the blood pressure effect: up to 20 minutes
